pIC50, pKi: −log10 of the molar value.
Experiments:
[1] = biological target: T1, Corticotropin-releasing factor receptor 1 (Homo sapiens, UniProt P34998); test: Inhibition of CRF-stimulated cAMP production in CHO cells expressing human CRF1 receptor
T1 sequence (P34998 whole entry): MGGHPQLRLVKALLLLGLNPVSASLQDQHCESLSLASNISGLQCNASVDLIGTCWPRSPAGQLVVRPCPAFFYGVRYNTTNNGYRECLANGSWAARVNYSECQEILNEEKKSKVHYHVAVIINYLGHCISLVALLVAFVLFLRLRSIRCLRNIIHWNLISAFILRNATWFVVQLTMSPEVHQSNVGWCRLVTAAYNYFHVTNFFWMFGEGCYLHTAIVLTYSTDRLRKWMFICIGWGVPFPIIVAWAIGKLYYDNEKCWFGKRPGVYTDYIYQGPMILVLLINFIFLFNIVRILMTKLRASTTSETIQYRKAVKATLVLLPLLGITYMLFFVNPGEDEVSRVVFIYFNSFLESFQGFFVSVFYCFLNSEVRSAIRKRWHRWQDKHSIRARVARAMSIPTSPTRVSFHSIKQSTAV

[2] = biological target: T1, Corticotropin-releasing factor receptor 1; test: Inhibition of [125I]o-CRF binding to CHO cells expressing human CRF1 receptor; format: cell-based
[3] = Plasma volume distribution determined in dawley rats; format: ADME, organism-based; conditions: Sprague-Dawley, rat
[4] = Plasma clearance determined in dawley rats; format: ADME, organism-based; conditions: Sprague-Dawley, rat
[5] = Plasma half-life determined in dawley rats; format: ADME; conditions: Sprague-Dawley, rat

Structure (SMILES): CCCN(CCOC)c1cc(C)nc2c(-c3ccc(OC)cc3OC)c(C)nn12
- pIC50 [1]: 7.12

Structure (SMILES): CCCCN(CC)c1cc(C)nc2c(-c3cnc(N(C)C)cc3C)c(C)nn12
- pKi [2]: 8.59

Structure (SMILES): CCC(COC)Nc1cc(C)nc2c(-c3cnc(N(C)C)cc3C)c(C)nn12 (stereo not given)
- pKi [2]: 6.59

Structure (SMILES): CCCN(CCC)c1c(Cl)c(C)nc2c(-c3cnc(N(C)C)cc3C)c(C)nn12
- pKi [2]: 7.41

Structure (SMILES): CCCN(c1ccccc1)c1cc(C)nc2c(-c3cnc(N(C)C)cc3C)c(C)nn12
- pKi [2]: 8.06

Structure (SMILES): CCCN(CCC)c1cc(C)nc2c(-c3ncc(N(C)C)cc3C)c(C)nn12
- pIC50 [1]: 6.80

Structure (SMILES): CCN(Cc1cccc(C)c1)c1cc(C)nc2c(-c3cnc(N(C)C)cc3C)c(C)nn12
- pKi [2]: 8.62

Structure (SMILES): CCN(Cc1ccc(Cl)c(Cl)c1)c1cc(C)nc2c(-c3cnc(N(C)C)cc3C)c(C)nn12
- pKi [2]: 8.60

Structure (SMILES): CCN(Cc1ccc(C)cc1)c1cc(C)nc2c(-c3cnc(N(C)C)cc3C)c(C)nn12
- pKi [2]: 8.64

Structure (SMILES): CCN(Cc1ccccc1F)c1cc(C)nc2c(-c3cnc(N(C)C)cc3C)c(C)nn12
- pKi [2]: 8.47

Structure (SMILES): CCC(CC)Nc1cc(C)nc2c(-c3cnc(N(C)C)cc3C)c(C)nn12
- pKi [2]: 8.03

Structure (SMILES): CCCN(CCC)c1cc(C)nc2c(-c3c(C)cc(N(C)C)nc3C)c(C)nn12
- pKi [2]: 8.28
- pIC50 [1]: 7.40

Structure (SMILES): CCCCN(Cc1ccccc1)c1cc(C)nc2c(-c3cnc(N(C)C)cc3C)c(C)nn12
- pKi [2]: 8.54

Structure (SMILES): CCCC(CCC)Nc1cc(C)nc2c(-c3cnc(N(C)C)cc3C)c(C)nn12
- pKi [2]: 8.32

Structure (SMILES): CCCN(CCC)c1cc(C)nc2c(-c3ccc(N(C)C)nc3)c(C)nn12
- pKi [2]: 8.38
- pIC50 [1]: 6.96

Structure (SMILES): Cc1cc(NC(C)CCC(C)C)n2nc(C)c(-c3cnc(N(C)C)cc3C)c2n1 (stereo not given)
- pKi [2]: 7.89

Structure (SMILES): CCCN(CC1CC1)c1cc(C)nc2c(-c3cnc(N(C)C)cc3C)c(C)nn12
- pKi [2]: 8.59

Structure (SMILES): CCCN(CCC)c1cc(C)nc2c(-c3cnc(N(C)C)cc3C)c(C)nn12
- Vd [3]: 16.7 L/kg
- clearance [4]: 112 mL/min/kg
- half-life [5]: 1.7 h

Structure (SMILES): CCCN(CCC)c1cc(C)nc2c(-c3cnc(C)cc3C)c(C)nn12
- pKi [2]: 8.14

Structure (SMILES): CCCCN(CCCC)c1cc(C)nc2c(-c3cnc(N(C)C)cc3C)c(C)nn12
- pKi [2]: 8.38

Structure (SMILES): CCN(Cc1ccccc1C)c1cc(C)nc2c(-c3cnc(N(C)C)cc3C)c(C)nn12
- pKi [2]: 8.62

Structure (SMILES): COCC(Cc1ccccc1)Nc1cc(C)nc2c(-c3cnc(N(C)C)cc3C)c(C)nn12 (stereo not given)
- pKi [2]: 8.19

Structure (SMILES): CCCN(CCC)c1cc(C)nc2c(-c3ccc(C)nc3)c(C)nn12
- pKi [2]: 7.68

Structure (SMILES): CCCN(Cc1ccc2ccccc2c1)c1cc(C)nc2c(-c3cnc(N(C)C)cc3C)c(C)nn12
- pKi [2]: 7.82

Structure (SMILES): CCCN(CCC)c1c(Br)c(C)nc2c(-c3cnc(N(C)C)cc3C)c(C)nn12
- pKi [2]: 6.62

Structure (SMILES): CCCN(Cc1cccc(OC)c1)c1cc(C)nc2c(-c3cnc(N(C)C)cc3C)c(C)nn12
- pKi [2]: 7.62

Structure (SMILES): CCN(Cc1ccc(Cl)cc1)c1cc(C)nc2c(-c3cnc(N(C)C)cc3C)c(C)nn12
- pKi [2]: 8.89

Structure (SMILES): CCCN(Cc1ccccc1)c1cc(C)nc2c(-c3cnc(N(C)C)cc3C)c(C)nn12
- pKi [2]: 8.28

Structure (SMILES): Cc1cc(N(Cc2ccccc2)C(C)C)n2nc(C)c(-c3cnc(N(C)C)cc3C)c2n1
- pKi [2]: 7.96

Structure (SMILES): CCCN(CCC)c1cc(C)nc2c(-c3ccc(N(C)C)nc3C)c(C)nn12
- pKi [2]: 8.66
- pIC50 [1]: 6.72

Structure (SMILES): Cc1cc(NC(C)C(C)C)n2nc(C)c(-c3cnc(N(C)C)cc3C)c2n1 (stereo not given)
- pKi [2]: 7.77

Structure (SMILES): CCCN(CCC)c1c(F)c(C)nc2c(-c3cnc(N(C)C)cc3C)c(C)nn12
- pKi [2]: 8.25
- pIC50 [1]: 7.30

Structure (SMILES): CCCN(CC1CC1)c1cc(C)nc2c(-c3ccc(Cl)cc3Cl)c(C)nn12
- pKi [2]: 8.80
- pIC50 [1]: 7.54

Source: ChEMBL document CHEMBL1138740, “Design of 2,5-dimethyl-3-(6-dimethyl-4-methylpyridin-3-yl)-7-dipropylaminopyrazolo[1,5-a]pyrimidine (NBI 30775/R121919) and structure--activity relationships of a series of potent and orally active corticotropin-releasing factor receptor antagonists” (J Med Chem, 2004)
